ChEMBL document CHEMBL3244094, “Nonenolizable podophyllotoxin derivatives” (1977)
Active and inactive are the calls of the source. The calls are words filed in the database; no cut-off is given here.

Tests used:
[1] = system: P815; assay: Cytotoxicity against mouse P815 cells assessed as concentration required to produce 50% arrest of mitotic activity; type: functional
[2] = species: Gallus gallus; assay: Competitive binding affinity to tubulin in chick embryo brain by radioactive colchicine displacement assay; type: tissue-based
[3] = system: L5178Y; assay: Cytotoxicity against mouse L5178Y cells assessed as concentration required to produce 50% inhibition of cell count in suspension of growing cells; type: functional
[4] = species: Gallus gallus; assay: Inhibition of tubulin in chick brain assessed as concentration required to inhibit microtubule formation by 50%
[5] = system: TA3; assay: Cytotoxicity against mouse TA3 cells assessed as concentration required to produce 50% decrease in protein production; type: functional
[6] = system: TLX-5; assay: Anticancer activity against mouse TLX5 cells allografted in mouse; type: functional, cell-based
[7] = system: L1210; assay: Anticancer activity against mouse L1210 cells allografted in mouse; type: functional, cell-based
[8] = system: TA3; assay: Anticancer activity against mouse TA3 cells allografted in mouse; type: functional, cell-based
[9] = species: Gallus gallus; assay: Inhibition of tubulin in chick brain assessed as concentration required to inhibit microtubule formation by 50% relative to podophyllotoxin; conditions: concentration not given here
[10] = species: Gallus gallus; assay: Competitive binding affinity to tubulin in chick embryo brain by radioactive colchicine displacement assay relative to podophyllotoxin
[11] = In vivo inhibition of microtubule assembly in Stentor coeruleus assessed as minimum concentration required to delay regeneration of ciliated oral apparatus by […] analysis; type: functional
[12] = In vivo inhibition of microtubule assembly in Stentor coeruleus assessed as minimum concentration required to delay regeneration of ciliated oral apparatus by […] analysis relative to podophyllotoxin; type: functional
[13] = system: Caelifera; assay: Competitive binding affinity to tubulin in grasshopper embryo by radioactive colchicine displacement assay

| Structure (SMILES) | Activity [1] [×10⁻⁷ M] | KA [2] [×10⁶ L/mol] | Activity [3] [×10⁻⁷ M] | Activity [4] [×10⁻⁷ M] | Activity [5] [×10⁻⁷ M] | Activity [6] | Activity [7] | Activity [8] | inhibition [9] [%] | Activity [10] [%] | Activity [2] | MEC [11] [µM] | inhibition (INH) [12] [%] | KA [13] [×10⁶ L/mol] |
| --- | --- | --- | --- | --- | --- | --- | --- | --- | --- | --- | --- | --- | --- | --- |
| COc1cc([C@H]2c3cc4c(cc3C[C@H]3CCC[C@@H]32)OCO4)cc(OC)c1OC | 6.5 | 0.02 | 16 | 50 | 50 |  |  |  |  |  |  |  |  |  |
| COc1cc([C@H]2c3cc4c(cc3C[C@H]3COC[C@@H]32)OCO4)cc(OC)c1OC | 0.52 | 0.4 | 1.4 | 8 | 6 | inactive | inactive | inactive | 75 | 20 |  |  |  |  |
| COc1cc([C@H]2c3cc4c(cc3[C@@H](O)[C@H]3CS(=O)(=O)C[C@H]23)OCO4)cc(OC)c1OC | >220 |  | >220 | > 1000 | >100 |  |  |  |  |  | Active |  |  |  |
| COc1cc([C@H]2c3cc4c(cc3[C@@H](O)[C@H]3CSC[C@H]23)OCO4)cc(OC)c1OC | 4.3 |  | 14 | 100 | 60 |  |  |  |  |  | Active |  |  |  |
| COc1cc([C@H]2c3cc4c(cc3[C@@H](O)[C@H]3COC(=O)[C@H]23)OCO4)cc(OC)c1OC | 0.12 | 2 | 0.14 | 6 | 3 | inactive | inactive | inactive |  |  |  | 4 |  |  |
| COc1cc([C@H]2c3cc4c(cc3[C@@H](O)[C@H]3COC[C@H]23)OCO4)cc(OC)c1OC | 0.59 | 0.2 | 1.3 | 10 | 6 | inactive | inactive | inactive | 60 | 13 |  | 20 | 20 |  |
| COc1cc([C@H]2c3cc4c(cc3C[C@H]3CC(=O)C[C@@H]32)OCO4)cc(OC)c1OC | 1 | 0.02 | 15 | 50 | 15 |  |  |  |  |  |  |  |  |  |
| COc1cc([C@H]2c3cc4c(cc3C[C@H]3COC(=O)[C@@H]32)OCO4)cc(OC)c1OC | 0.05 | 2 |  |  |  |  |  |  |  |  |  |  |  |  |
| COc1cc([C@H]2c3cc4c(cc3[C@@H](O)[C@H]3COC(=O)[C@@H]23)OCO4)cc(OC)c1OC | 1.9 |  |  |  |  |  |  |  |  |  |  |  |  | 0.037 |
| COc1cc([C@H]2c3cc4c(cc3C[C@H]3COC(=O)[C@H]32)OCO4)cc(OC)c1OC [ISOPICRODEOXYPODOPHYLLOTOXIN] | 1.3 |  |  |  |  |  |  |  |  |  |  |  |  |  |
| COc1cc([C@H]2c3cc4c(cc3C[C@H]3CSC[C@@H]32)OCO4)cc(OC)c1OC | 6 |  | 15 | 100 | 50 |  |  |  |  |  | Active |  |  |  |
| COc1cc([C@H]2c3cc4c(cc3C[C@H]3CS(=O)(=O)C[C@@H]32)OCO4)cc(OC)c1OC | 69 |  | 139 | > 500 | >100 |  |  |  |  |  | Active |  |  |  |
